According to article PMC10198811 (The Pediatric infectious disease journal, 2023):
≈ marks a conversion by molar mass, not a printed value. Like-named read-outs stand apart in the source and are kept apart here. *1 amine or outer side, *2 acyl side, *3 side chain or, on linkers, in order; H or OH if unused. Where a SMILES comes first, the peptide text is derived from it. Bridges are numbered along the chain shown (N, C = ends). [ ]: non-standard residue; d: D form. The star is where a group is joined. hTyr(3S-OH,4S-OH,3'-OSO3H) = N[C@H](C(=O)O)[C@H](O)[C@@H](O)c1ccc(O)c(OS(=O)(=O)O)c1; Orn(4R-OH,5R-OH) = O=C([C@H](C[C@@H](O)[C@@H](O)N[*:3])N[*:1])[*:2]; Pro(3S-OH,4S-Me) = C[C@H]1CN[C@H](C(=O)O)[C@H]1O; X1 = CCCCCOc1ccc(-c2cc(-c3ccc(C(=O)*)cc3)no2)cc1; Gln(3R-OH) = NC(=O)C[C@@H](O)[C@H](N)C(=O)O; Hyp = O=C(O)[C@@H]1C[C@@H](O)CN1

Columns and labels:
F. solani isolate [1] = experiment: Antifungal susceptibility testing; format: cell-based, F. solani complex; settings: Fusarium solani
CYP2C19 = settings: compared to ilaprazole and pantoprazole; cited from earlier work
[2] = cited from earlier work
Fusarium spp. = settings: cited from earlier work
F. solani isolate [3] = experiment: In vitro synergy testing of the voriconazole and micafungin combination; format: cell-based, F. solani complex; settings: tested at University of Texas Health Science Center in San Antonio
[4] = cited from earlier work; remark: listed apart in the source

In the case of `C[C@@H](c1nc(-c2ccc(C#N)cc2)cs1)[C@](O)(Cn1cncn1)c1cc(F)ccc1F` [isavuconazole], the MIC (F. solani isolate [1]) is reported as > 16 µg/mL.

For `Cc1c(OCC(F)(F)F)ccnc1C[S+]([O-])c1nc2ccccc2[nH]1` (stereo not shown) [lansoprazole], the CYP2C19 inhibitory effect (CYP2C19) is given as “more potent inhibitory effects”.

In the case of `C[C@@H](c1ncncc1F)[C@](O)(Cn1cncn1)c1ccc(F)cc1F` [voriconazole], the MIC (F. solani isolate [1]) is listed as 4 µg/mL (≈ 11.5 µM), the “Increase of voriconazole AUC” value ([2]; healthy subjects, with cimetidine 400 mg PO q12h) is listed as 23% and the “Increase of voriconazole AUC” value ([2]; healthy volunteers, with omeprazole 40 mg PO q24h) is listed as 40%. The MIC50 (Fusarium spp.) was 8 µg/mL (≈ 22.9 µM), the “Repeat imaging of metastatic sites of proven or suspected infection” value (F. solani complex; 6 months after initiation of voriconazole therapy) was “significant interval improvement or resolution of all metastatic sites” and the “Voriconazole-related toxicity (e.g., hepatotoxicity, neurotoxicity)” value (F. solani complex; ~10.7 mg/kg/dose PO q8h for several months, troughs 4 to 6 mcg/mL) was “without any evidence of voriconazole-related toxicity”.

`C[C@@H]1[C@H](O)[C@@H](C)/C=C/C=C/C=C/C=C/C=C/C=C/C=C/[C@H](O[C@@H]2O[C@H](C)[C@@H](O)[C@H](N)[C@@H]2O)C[C@@H]2O[C@](O)(C[C@@H](O)C[C@@H](O)[C@H](O)CC[C@@H](O)C[C@@H](O)CC(=O)O[C@H]1C)C[C@H](O)[C@H]2C(=O)O` [amphotericin B] showed an MIC (F. solani isolate [1]) of 8 µg/mL (≈ 8.66 µM).

In the case of `CCCCCOc1ccc(-c2cc(-c3ccc(C(=O)N[C@H]4C[C@@H](O)[C@@H](O)NC(=O)[C@@H]5[C@@H](O)[C@@H](C)CN5C(=O)[C@H]([C@H](O)CC(N)=O)NC(=O)[C@H]([C@H](O)[C@@H](O)c5ccc(O)c(OS(=O)(=O)O)c5)NC(=O)[C@@H]5C[C@@H](O)CN5C(=O)[C@H]([C@@H](C)O)NC4=O)cc3)no2)cc1` [micafungin] (X1-[Orn(4R-OH,5R-OH)]T[Hyp][hTyr(3S-OH,4S-OH,3'-OSO3H)][Gln(3R-OH)][Pro(3S-OH,4S-Me)]; lactam 1-C), the Synergy of combination (F. solani isolate [3]) is reported as “did not reveal synergy”.

In the case of `CN/C(=N/CCSCc1nc[nH]c1C)NC#N` [cimetidine], the Toxicity [4] is given as “central nervous system effects and anti-androgenic side effects”.

In the case of `COc1ccc2nc([S@@+]([O-])Cc3ncc(C)c(OC)c3C)[nH]c2c1` [esomeprazole], the CYP2C19 inhibitory effect (CYP2C19) is given as “more potent inhibitory effects”.

In the case of `CC[C@@H]([C@H](C)O)n1ncn(-c2ccc(N3CCN(c4ccc(OC[C@@H]5CO[C@@](Cn6cncn6)(c6ccc(F)cc6F)C5)cc4)CC3)cc2)c1=O` [posaconazole], the MIC (F. solani isolate [1]) is reported as > 16 µg/mL.

In the case of `COc1ccc2[nH]c([S+]([O-])Cc3ncc(C)c(OC)c3C)nc2c1` (stereo not shown) [omeprazole], the CYP2C19 inhibitory effect (CYP2C19) is given as “more potent inhibitory effects”, the “Omeprazole AUC with voriconazole compared to absence of co-administration” value ([2]; voriconazole co-administration) is given as 4 times higher and the “Omeprazole Cmax with voriconazole compared to absence of co-administration” value ([2]; voriconazole co-administration) is given as 2 times higher.
